ChEMBL document CHEMBL2346658, “8,8-dialkyldihydroberberines with potent antiprotozoal activity” (J Nat Prod, 2013)
Counter-ions that a name gives are not always drawn. Activity calls are given as the source filed them. The rule behind the calls is not given here.

What was measured:
[1] = tested on: Trypanosoma brucei brucei; experiment: Antitrypanosomal activity against Trypanosoma brucei brucei blood-stream forms; format: functional, organism-based
Leishmania donovani [2] = experiment: Antileishmanial activity against Leishmania donovani; format: functional, organism-based
Plasmodium falciparum = experiment: Antimalarial activity against erythrocyte stage Plasmodium falciparum 3D7; format: functional, organism-based
[3] = Binding affinity to poly(dA.dT) DNA (unknown origin) assessed as change in melting temperature
[4] = tested on: Trypanosoma brucei rhodesiense; experiment: Antitrypanosomal activity against Trypanosoma brucei rhodesiense STIB900 infected in NMRI mouse assessed as infection cure rate at 10 mg/kg/day for 4 days starting from 3 to 6 days post-infection measured on day 10; format: functional, organism-based
[5] = tested on: Trypanosoma brucei rhodesiense; experiment: Antitrypanosomal activity against Trypanosoma brucei rhodesiense STIB900 infected in NMRI mouse assessed as infection cure rate at 10 mg/kg/day for 4 days starting from 3 to 6 days post-infection measured on day 7; format: functional, organism-based
Mus musculus = experiment: Toxicity in BALB/c mouse assessed as induction of overt toxicity at 10 mg/kg/day, ip for 5 days; format: organism-based; parameters: route intraperitoneal; settings: in vivo, 120 h
Leishmania donovani [6] = experiment: Antileishmanial activity against Leishmania donovani LV82 infected in BALB/c mouse model of visceral leishmaniasis assessed as inhibition of liver parasitemia at 10 mg/kg/day, ip for 5 days starting 7 days post-infection; format: functional; settings: route intraperitoneal
[7] = Selectivity index, ratio of IC50 for african green monkey Vero cells to IC50 for Leishmania donovani; format: toxicity, cell-based; settings: read-out: Ratio IC50
[8] = Selectivity index, ratio of IC50 for african green monkey Vero cells to IC50 for Trypanosoma brucei brucei blood-stream forms; format: toxicity, cell-based; settings: read-out: Ratio IC50
Vero = experiment: Cytotoxicity against african green monkey Vero cells; format: cell-based; settings: Chlorocebus sabaeus
[9] = tested on: Trypanosoma brucei rhodesiense; experiment: Antitrypanosomal activity against Trypanosoma brucei rhodesiense STIB900 infected in NMRI mouse assessed as infection cure rate at 1 mg/kg/day for 4 days starting from 3 to 6 days post-infection measured on day 10; format: functional, organism-based
[10] = tested on: Trypanosoma brucei rhodesiense; experiment: Antitrypanosomal activity against Trypanosoma brucei rhodesiense STIB900 infected in NMRI mouse assessed as infection cure rate at 1 mg/kg/day for 4 days starting from 3 to 6 days post-infection measured on day 7; format: functional, organism-based
[11] = Selectivity index, ratio of IC50 for african green monkey Vero cells to IC50 for erythrocyte stage Plasmodium falciparum 3D7; format: toxicity, cell-based; settings: read-out: Ratio IC50
Leishmania donovani [12] = experiment: Potency index, ratio of IC50 for chloroquine to IC50 for compound against Leishmania donovani; format: functional

Compound | IC50 [1] | IC50 (Leishmania donovani [2]) | IC50 (Plasmodium falciparum) | ΔTm [3] | inhibition in vivo at 10 mg/kg/day (Leishmania donovani [6]) | IC50 (Vero) | other results
COc1ccc2c(c1OC)C(C)(C)N1CCc3cc4c(cc3C1C2)OCO4 (stereo unspecified) [8,8-DIMETHYLCANADINE] | 52 µM | 7.3 µM | 7.3 µM |  |  |  | 
CCC1(CC)c2c(ccc(OC)c2OC)CC2=[N+]1CCc1cc3c(cc12)OCO3.[Cl-] [8,8-Diethyldihydroberberine] | 0.0053 µM | 0.1 µM | 0.077 µM | 0.5 °C | 29% | 18 µM | Activity [4]: inactive; Activity [5]: Active; Activity (Mus musculus): Non-toxic; selectivity ratio [7]: > 100; selectivity ratio [8]: 3000
CCC1(CC)c2c(ccc(OC)c2OC)C(=O)c2c3cc4c(cc3cc[n+]21)OCO4.[Cl-] | 0.002 µM | 0.29 µM | 0.02 µM | 0.5 °C |  | 39 µM | Activity [9]: inactive; Activity [10]: Active; selectivity ratio [11]: > 600; selectivity ratio [7]: > 100; selectivity ratio [8]: 3000; Ratio IC50 (Leishmania donovani [12]): 4
CCC1(CC)c2c(ccc(OC)c2OC)CC2c3cc4c(cc3CCN21)OCO4 (stereo unspecified) [8,8-DIETHYLCANADINE] | 0.23 µM | 8.9 µM | 1.7 µM |  |  |  | 
COc1cc([C@@H]2c3cc4c(cc3[C@H](O)[C@H]3COC(=O)[C@H]23)OCO4)cc(OC)c1OC [PODOFILOX] |  |  |  |  |  | 0.017 µM | 
CCCCCCCCCCCCCCCCOP(=O)([O-])OCC[N+](C)(C)C [MILTEFOSINE] |  |  |  |  | 97% |  | 

Further lines, with some results ahead:

IC50 [1] | IC50 (Leishmania donovani [2]) | IC50 (Plasmodium falciparum) | ΔTm [3] | Compound | inhibition in vivo at 10 mg/kg/day (Leishmania donovani [6]) | IC50 (Vero) | other results
0.13 µM |  |  |  | Cc1ccc(C(=O)Nc2ccc(S(=O)(=O)O)c3cc(S(=O)(=O)O)cc(S(=O)(=O)O)c23)cc1NC(=O)c1cccc(NC(=O)Nc2cccc(C(=O)Nc3cc(C(=O)Nc4ccc(S(=O)(=O)O)c5cc(S(=O)(=O)O)cc(S(=O)(=O)O)c45)ccc3C)c2)c1 [SURAMIN] |  |  | 
 | 17 µM |  | 3.5 °C | COc1ccc2cc3[n+](cc2c1OC)CCc1cc2c(cc1-3)OCO2 [BERBERINE SULFATE] |  | > 200 µM | 
 | 0.046 µM |  |  | C[C@@H]1[C@H](O)[C@@H](C)/C=C/C=C/C=C/C=C/C=C/C=C/C=C/[C@H](O[C@@H]2O[C@H](C)[C@@H](O)[C@H](N)[C@@H]2O)C[C@@H]2O[C@](O)(C[C@@H](O)C[C@@H](O)[C@H](O)CC[C@@H](O)C[C@@H](O)CC(=O)O[C@H]1C)C[C@H](O)[C@H]2C(=O)O [AMPHOTERICIN B] |  |  | 
0.053 µM | 0.55 µM | 0.03 µM | 0 °C | CCCC1(CCC)c2c(ccc(OC)c2OC)CC2=[N+]1CCc1cc3c(cc12)OCO3.[Cl-] [8,8-Dipropyldihydroberberine] | 32% | 19 µM | Activity (Mus musculus): Non-toxic; selectivity ratio [11]: > 600; Ratio IC50 (Leishmania donovani [12]): 4
4.6 µM | 0.2 µM | 0.063 µM | 0.3 °C | COc1ccc2c(c1OC)C(C)(C)[N+]1=C(C2)c2cc3c(cc2CC1)OCO3.[Cl-] [8,8-dimethyldihydroberberine] | 46% | 8.8 µM | Activity (Mus musculus): Non-toxic
